# Source: PubChem BioAssay AID504503 (Southern Research Specialized Biocontainment Screening …, 2011)
# Tested on: human PBMC, CCR5-tropic HIV-1 replication, RT activity
# Test: HIV-1 replication inhibition in human PBMCs, dose response, cell-based, CCR5-tropic HIV-1, primary PBMCs (AID 504503)
row,SMILES,IC50
1,COc1ccc(CCn2c(O)cc3nn(-c4nc5ccccc5s4)c(=O)c-3c2C)cc1,5.11 µM
2,Cc1c2c(=O)n(-c3nc4ccccc4s3)nc-2cc(O)n1CCc1cccs1,16.6 µM
3,Cc1c2c(=O)n(-c3nc4ccccc4s3)nc-2cc(O)n1C1CC1,2.17 µM
4,Cc1c2c(=O)n(-c3nc4ccccc4s3)nc-2cc(O)n1Cc1ccccc1Cl,5.16 µM
5,Cc1c2c(=O)n(-c3nc4ccccc4s3)nc-2cc(O)n1Cc1ccncc1,1.6 µM
6,COc1ccccc1Cn1c(O)cc2nn(-c3nc4ccccc4s3)c(=O)c-2c1C,3.93 µM
7,Cc1c2c(=O)n(-c3nc4ccccc4s3)nc-2cc(O)n1CCC(C)C,5.37 µM
8,Cc1c2c(=O)n(-c3nc4ccccc4s3)nc-2cc(O)n1Cc1cccnc1,2.82 µM
9,Cc1c2c(=O)n(-c3nc4ccccc4s3)nc-2cc(O)n1CCc1ccc(O)cc1,1.29 µM
10,Cc1c2c(=O)n(-c3nc4ccccc4s3)nc-2cc(O)n1Cc1ccc(F)cc1,6.8 µM
11,Cc1c2c(=O)n(-c3nc4ccccc4s3)nc-2cc(O)n1Cc1cccs1,10.5 µM
12,COc1ccc(Cn2c(O)cc3nn(-c4nc5ccccc5s4)c(=O)c-3c2C)cc1,4.88 µM
